Reference: PubChem BioAssay (NCI)
Several values for one entry are separate records, joined by “and”; a condition that tells them apart may be missing. Equal entries are not always repeated.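 Dose response: 5 concentrations. Exposure: 48 h. Format: 96-well plates. Endpoint: linear interpolation; highest concentration if not reached. At the GI50, growth is halved. At the TGI there is no net growth.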

Assays:
Assay in all cases: NCI-60 cell line screen, 48 h
HOP-62 NSCLC = test system: HOP-62 NSCLC
SF-295 CNS = test system: SF-295 CNS
U251 CNS = test system: U251 CNS
UO-31 renal = test system: UO-31 renal
MOLT-4 leukemia = test system: MOLT-4 leukemia
OVCAR-8 ovarian = test system: OVCAR-8 ovarian
TK-10 renal = test system: TK-10 renal
SNB-19 CNS = test system: SNB-19 CNS
RPMI-8226 leukemia = test system: RPMI-8226 leukemia
CAKI-1 renal = test system: CAKI-1 renal

| SMILES | TGI (HOP-62 NSCLC) | TGI (SF-295 CNS) | TGI (U251 CNS) | TGI (UO-31 renal) | TGI (MOLT-4 leukemia) | TGI (OVCAR-8 ovarian) | TGI (TK-10 renal) | TGI (SNB-19 CNS) | TGI (RPMI-8226 leukemia) | TGI (CAKI-1 renal) | GI50 (HOP-62 NSCLC) | GI50 (SF-295 CNS) | GI50 (U251 CNS) | GI50 (UO-31 renal) | GI50 (MOLT-4 leukemia) | GI50 (OVCAR-8 ovarian) | GI50 (TK-10 renal) | GI50 (SNB-19 CNS) | GI50 (RPMI-8226 leukemia) | GI50 (CAKI-1 renal) |
| --- | --- | --- | --- | --- | --- | --- | --- | --- | --- | --- | --- | --- | --- | --- | --- | --- | --- | --- | --- | --- |
| CC(=O)OCCOCNC(=S)N/N=C/c1ccc2ccccc2n1 | > 100 µM | > 100 µM | > 100 µM | > 100 µM | > 100 µM | > 100 µM | > 100 µM | > 100 µM | > 100 µM |  |  |  |  |  |  |  |  |  |  |  |
| [N-]=[N+]=Nc1ccc(CCN2CCN(c3cccc(C(F)(F)F)c3)CC2)cc1I |  | > 100 µM | > 100 µM | > 100 µM | > 100 µM | > 100 µM | > 100 µM | > 100 µM | 69.4 µM | > 100 µM |  |  |  |  |  |  |  |  |  |  |
| COc1ccc(Cl)cc1Nc1nc(C(F)(F)F)ccc1C(=O)N/N=C/c1ccc([N+](=O)[O-])cc1 | 11.4 µM | 3.79 µM | 6.63 µM | 5.97 µM | 13.2 µM | 62.2 µM | 5.88 µM | 13 µM | 6.55 µM | 4.74 µM | 2.35 µM | 1.17 µM | 2.06 µM | 1.77 µM | 3.82 µM | 2.77 µM | 1.22 µM | 2.33 µM | 1.6 µM | 1.46 µM |
| Cc1cc(Cc2cc(C)c(O)c(C)c2)cc(C)c1O | 89.6 µM | 21.7 µM | 19.6 µM | 96.6 µM | 27.8 µM | > 100 µM | 56.8 µM | > 100 µM | 30.9 µM | 21.6 µM | 7.01 µM | 3.92 µM | 3.68 µM | 7.65 µM | 3.82 µM | 7.59 µM | 11.2 µM | 7.81 µM | 3.89 µM | 3.74 µM |
| C[C@@H](C1CCC2C3C(=CC(=O)[C@@]21C)[C@H](C)[C@]1(CCC(=O)O1)C1OC31)[C@H]1C[C@]2(C)O[C@@](C)(O1)OC2(C)C (some centres not stated) |  | > 100 µM | > 100 µM | > 100 µM | > 100 µM | > 100 µM | > 100 µM | > 100 µM | > 100 µM | > 100 µM |  |  |  |  |  |  |  |  |  |  |
| Clc1ccccc1C(n1ncc2ccccc21)n1ncc2ccccc21 | > 100 µM | > 100 µM | > 100 µM | 94.4 µM | > 100 µM | > 100 µM | > 100 µM | > 100 µM | 63.3 µM | > 100 µM |  |  |  |  |  |  |  |  |  |  |
| COc1cc(NS(C)(=O)=O)ccc1Nc1c2ccccc2nc2c(C)cccc12 | 1.37 µM and 1.34 µM | 0.386 µM and 3.46 µM | 1.15 µM and 0.868 µM | 5.28 µM and 2.81 µM | 0.229 µM and 0.176 µM | 7.08 µM and 11.6 µM | 2.94 µM and 1.38 µM | 15.5 µM and 15.9 µM | 0.853 µM and 0.717 µM | 4.6 µM and 5.71 µM | 0.104 µM and 0.117 µM | 0.0399 µM and 0.0874 µM | 0.106 µM and 0.0963 µM | 0.215 µM and 0.124 µM | 0.0245 µM and 0.0304 µM | 0.233 µM and 0.23 µM | 0.476 µM and 0.16 µM | 0.196 µM and 0.23 µM | 0.187 µM and 0.134 µM | 0.073 µM and 0.0923 µM |
| CC1=CC[C@@H]2C(C)(C)C(=O)CC[C@@]2(C)[C@@H]1COc1ccc2ccc(=O)oc2c1 | 85.1 µM | 44.3 µM | > 100 µM | 34.9 µM | 17.9 µM | 39 µM | > 100 µM | > 100 µM |  | 80.8 µM | 22.3 µM | 15.5 µM | 27.6 µM | 8.15 µM | 3.79 µM | 5.69 µM | 45.3 µM | 32.9 µM |  | 9.5 µM |
| COc1cc(-c2nn(-c3ccc(NC(=O)Nc4ccc(Cl)c(Cl)c4)cc3)cc2-c2ccncc2)ccc1Cl | 22.3 µM | 4.4 µM | 15.1 µM | 11.3 µM | > 100 µM | > 100 µM | > 100 µM | > 100 µM |  | 7.68 µM | 3.79 µM | 1.82 µM | 2.84 µM | 2.74 µM | 3.27 µM | 3.49 µM | 6.5 µM | 5.29 µM |  | 2.59 µM |
| CN(CCC#N)c1ccc(/C=C(\C#N)c2cccc(C(F)(F)F)c2)cc1 | > 100 µM | > 100 µM | > 100 µM | > 100 µM | > 100 µM | > 100 µM | > 100 µM | > 100 µM | > 100 µM | > 100 µM | 6.2 µM | 3.87 µM | 3.75 µM | 2.27 µM | 3.06 µM | 3.99 µM | 3.12 µM | 17 µM | 3.63 µM | 4.24 µM |
| CN(Cc1cnc(N)nc1N)c1ccc(C(=O)O)cc1 | > 100 µM | > 100 µM | > 100 µM | > 100 µM | > 100 µM | > 100 µM | > 100 µM | > 100 µM | > 100 µM | > 100 µM | > 100 µM | > 100 µM | > 100 µM | > 100 µM | > 100 µM | > 100 µM | > 100 µM | > 100 µM | > 100 µM | > 100 µM |
| O=C1c2ccccc2C(=O)C2C1C1C(=O)c3ccccc3C(=O)C21 (configuration not stated) | > 100 µM | > 100 µM | > 100 µM | > 100 µM |  | > 100 µM | > 100 µM | > 100 µM |  | > 100 µM |  |  |  |  |  |  |  |  |  |  |
| CC1(C)C(c2ccccc2)=NN(O)c2ccccc21 | > 100 µM | > 100 µM | > 100 µM |  | > 100 µM | > 100 µM | > 100 µM | > 100 µM | > 100 µM | > 100 µM |  |  |  |  |  |  |  |  |  |  |
| Cc1cc(=O)n(-c2ccccc2)c(=O)o1 | > 100 µM | > 100 µM | > 100 µM | > 100 µM | > 100 µM |  | > 100 µM | > 100 µM | > 100 µM | > 100 µM |  |  |  |  |  |  |  |  |  |  |
| O=c1oc2cc(N=Cc3ccccc3Cl)ccc2c2ccccc12 | > 100 µM | > 100 µM | > 100 µM | > 100 µM | > 100 µM | > 100 µM |  | > 100 µM | > 100 µM | > 100 µM |  |  |  |  |  |  |  |  |  |  |
| O=C(c1ccccc1)C(c1ccccc1)C1(O)C(=O)Nc2ccccc21 (configuration not stated) | > 100 µM | > 100 µM |  | > 100 µM | > 100 µM | > 100 µM | > 100 µM | > 100 µM | > 100 µM | > 100 µM |  |  |  |  |  |  |  |  |  |  |
